# In the OPERA property sets (Mansouri et al. 2018):
# Peptide text beside a SMILES is read from it.
row,SMILES,logP
1,O=[N+]([O-])c1cc(Cl)c(O)c(Cl)c1,2.94
2,O=C(O)c1cc2ccccc2[nH]1,2.31
3,CNc1nc(NC)nc(SC(F)F)n1,2.31
4,Nc1c([N+](=O)[O-])cc(C(F)(F)F)cc1[N+](=O)[O-],2.29
5,Nc1ccccc1C(=O)O,1.21
6,N#Cc1ccccc1,1.56
7,CNC(=O)c1ccoc1,0.34
8,CC(=C(C#N)C#N)c1ccccc1,2.1
9,CN1CCN(C)CC1,-0.4
10,COc1cc([C@@H]2c3cc4c(cc3[C@H](O)[C@H]3COC(=O)[C@H]23)OCO4)cc(OC)c1OC,2.01
11,O[C@@H]1CCCC[C@H]1O,0.08
12,Brc1cccnc1,1.6
13,N#Cc1ccc(NC=O)cc1,1.08
14,CC(C)c1ccccc1OC(=O)c1ccc(N)cc1O,4.28
15,Clc1ccc(Cl)c(-c2ccc(Cl)c(Cl)c2)c1,6.23
16,Nc1ccc(C(=O)Oc2ccc(Br)cc2)c(O)c1,3.46
17,O=C(O)Cc1ccc(OCCCc2ccccc2)c(Cl)c1,3.9
18,CC(C)=C1C(=O)OC2CC(C)C3C=CC(=O)C3(C)C(O)C12 (centres undefined),1.47
19,CC(=O)Nc1cccc(N(C)C)c1,1.29
20,NC(=O)CCc1cccnc1,-0.26
21,c1cnc2[nH]ccc2c1,1.82
22,COc1cccc(COC(=O)N(C)C)c1,2.09
23,Oc1c(Cl)ccc(Cl)c1Cl,3.77
24,Cc1cccc(Nc2ccccc2C(=O)O)c1C,5.12
25,C1CCOC1,0.46

row,SMILES,logP
1,NC(Cc1c[nH]c2ccc(F)cc12)C(=O)O (centres undefined),-0.71
2,Ic1ccc(I)cc1,4.11
3,Clc1cc(Cl)c(-c2c(Cl)cc(Cl)cc2Cl)c(Cl)c1,7.55
4,CCOC(C)=O,0.73
5,OCCN1CCN(CCCC2c3ccc(F)cc3Sc3ccc(C(F)(F)F)cc32)CC1 (centres undefined),4.47
6,CN(C)C(=O)Nc1ccc(C(=O)c2ccccc2)cc1,2.59
7,Nc1ccccc1SSc1ccccc1N,3.05
8,CCC(=O)OC1(c2ccccc2)CC(C)N(C)CC1C (centres undefined),3.13
9,CCCCC(=O)c1ccc[nH]1,2.42
10,CCNC(=O)c1ccoc1,0.72
11,COc1ccc(OC)c(N)c1,1.2
12,CC(=O)c1ccc(C(C)C)cc1,2.98
13,CCCCOCc1cccc(NC(=O)OCCN2CCCCC2)c1,3.73
14,CCc1ccccn1,1.69
15,CCC(C)n1c(=O)[nH]c(C)c(Br)c1=O (centres undefined),2.11
16,Nc1ccc(S)cc1,1.31
17,COC(=O)C(Cl)(Cl)Cl,2.03
18,COc1cccc([N+](=O)[O-])c1,2.16
19,CC(=O)N[C@@H](CC(N)=O)C(=O)N[C@H](C(N)=O)C(C)C,-1.85
20,CC(=O)c1ccc(C(O)C(CO)NC(=O)C(Cl)Cl)cc1 (centres undefined),0.57
21,O=C(O)Cc1ccccc1Nc1c(F)cccc1Cl,3.8
22,NC(=O)Nc1ccc(Br)cc1,1.98
23,Nc1ncc([N+](=O)[O-])s1,0.83
24,COc1ccc(N)cc1Cl,1.85
25,CCCCN(C)C,1.7

row,SMILES,logP
1,c1ccc(-c2cc3ccccn3c2)cc1,4.29
2,NCCNC(=O)c1ccccc1,0.06
3,O=[N+]([O-])c1cccc(O)c1,2
4,CCCN(CCC)S(=O)(=O)c1ccc(C(=O)O)cc1,3.21
5,O=C(CCNNC(=O)c1ccncc1)NCc1ccccc1,0.87
6,CCOP(=S)(OCC)Oc1ccc(N)cc1,2.6
7,O=CNc1ccc(F)cc1,1.27
8,CN(C)C(=N)N(C)C,0.41
9,COc1cccnc1CCCCNc1ncc(Cc2ccc(C)nc2)c(=O)[nH]1,2.58
10,S=c1[nH]c2ccccc2[nH]1,1.66
11,O=C1CCCO1,-0.64
12,CI,1.51
13,O=C(O)c1ccccc1C(=O)O,0.73
14,CC(=O)Oc1cccc(C)c1,2.09
15,NC(=O)Nc1cccc(Cl)c1,1.82
16,O=C(O)Cc1ccccc1Nc1c(Cl)cccc1Br,4.64
17,COc1ccc(O)cc1,1.58
18,OCCCF,-0.28
19,Cc1ccc(O)c2ncccc12,2.37
20,CCc1ccccc1OC(C)=O,2.42
21,COC(=O)Cn1ccnc1[N+](=O)[O-],-0.09
22,CNc1nc2c3cccnc3ccc2n1C,1.82
23,CSCC(=O)C=NO,1.21
24,O=C(O)c1cccc2ccccc12,3.1
25,COC(OC)(OC)c1ccccc1,2.27

row,SMILES,logP
1,Cc1cccc(C(=O)O)c1O,2.86
2,O=S(=O)(c1ccccc1)c1ccc2ncccc2c1,2.57
3,CCOP(=S)(OCC)Oc1ccc(Cl)cc1Cl,5.14
4,CC(=O)NC(C)C(=O)NC(Cc1ccc(O)cc1)C(=O)NC(Cc1ccccc1)C(N)=O (stereo not drawn) (Ac-Ala-Tyr-Phe-NH2; configuration not given here),0.26
5,CC(=O)C1CCC2C3CCC4=CC(=O)CCC4(C)C3C(O)CC12C (centres undefined),2.36
6,COCCN(CCOC)N=O,-0.38
7,COP(=S)(OC)SCn1nnc2ccccc2c1=O,2.75
8,CC(C)Nc1nc(Cl)nc(NC(C)C)n1,2.93
9,CC12CCC3C(CCC4CC(=O)CCC43C)C1CCC2=O (centres undefined),3.6
10,c1cnc2nccnc2c1,-0.04
11,O=S(=O)(N=[N+]([O-])c1ccccc1)c1ccccc1,2.87
12,CCNCCNCC,0.21
13,O=C(CCl)NC(CO)C(O)c1ccc([N+](=O)[O-])cc1 (centres undefined),0.59
14,OCC(Cl)(Cl)Cl,1.42
15,COC(=O)C(C)(C)C,1.83
16,OCCCc1ccccn1,0.58
17,CCC(NC(C)=O)C(=O)OC (centres undefined),-0.17
18,CC(=O)N(C)N=Nc1ccc(C(N)=O)cc1,1.37
19,Cc1ncc([N+](=O)[O-])n1CCS(C)(=O)=O,-0.82
20,CC(=O)Nc1cnc2ccccc2n1,1.53
21,CC(=O)Oc1ccccc1C(F)(F)F,2.59
22,O=C(O)C1COc2ccccc2O1 (centres undefined),1.4
23,C=CCC,2.4
24,OCCCc1nc2ccccc2[nH]1,1.25
25,CCS(=O)(=O)c1ccc(S(N)(=O)=O)c2ccccc12,1.24

row,SMILES,logP
1,CNc1nc(NC(C)(C)C)nc(SC(F)F)n1,3.91
2,c1ccc2occc2c1,2.67
3,O=C(O)COc1ccc(Cl)c([N+](=O)[O-])c1,1.85
4,CCCC(=O)Nc1ccccc1,2.05
5,c1ccc(COc2cccc3cccnc23)cc1,3.51
6,CCC(C)N(CC(O)COc1ccccc1)CC(O)COc1ccccc1 (centres undefined),3.46
7,CCCCCCC(=O)NN,0.97
8,O=CNc1ccccc1,1.15
9,O=C(CF)NC(CO)C(O)c1ccc([N+](=O)[O-])cc1 (centres undefined),0.15
10,CCN(CC)CCc1cccnc1,1.23
11,CCCC(=O)OCC(=O)C1(O)C(C)CC2C3CCC4=CC(=O)C=CC4(C)C3(F)C(O)CC21C (centres undefined),3.55
12,CC(C(=O)O)(c1ccccc1)c1ccccc1,2.69
13,Clc1ccc2ncccc2c1,2.73
14,c1nnn[nH]1,-0.6
15,CC1=Nc2ccc(Cl)cc2S(=O)(=O)N1,1.2
16,ClC(Cl)C(Cl)(Cl)Cl,3.22
17,O=C1CCCCCCCCCCC1,4.1
18,CCC[N+](=O)[O-],0.87
19,Cc1n[nH]c(C(=O)Nc2ccccc2)c1[N+](=O)[O-],1.81
20,CN(C)C(N(C)C)=S(I)c1ccc(I)cc1 (centres undefined),0.28
21,CCC(C)C(NCc1ccccc1)C(=O)O (centres undefined),-0.27
22,Nc1cc(N2CCCCC2)nc(N)[n+]1[O-],1.24
23,CN(C)c1cccc2ccccc12,3.46
24,c1ccc2c(c1)CCC2,3.18
25,Nc1ccc(S(=O)(=O)Nc2cnc3ccccc3n2)cc1,1.68

row,SMILES,logP
1,CC(=O)Nc1cccc(OCc2cccc(NC(=N)NC(=N)N)c2)c1,1.82
2,O=C(O)c1ccc(I)cc1,3.02
3,Cc1ccnc(NS(=O)(=O)c2ccc(N)cc2)n1,0.14
4,CCCNC,0.84
5,NC(=O)c1ccc(Br)cc1,1.76
6,CCOP(=S)(OCC)SCn1c(=O)oc2cc(Cl)ccc21,4.38
7,CCN(CC)CCN,0.21
8,NC(=O)CCCCc1cccnc1,0.4
9,Clc1cccc(-c2cccc(Cl)c2Cl)c1Cl,6.18
10,CN(C)C(N(C)C)=S(I)c1cc(Cl)ccc1Cl (centres undefined),0.05
11,CCCCOc1cccc(C=C(C(=O)OCC)C(=O)OCC)c1,4.03
12,O=CC(Cl)(Cl)Cl,0.99
13,CCCC(=NOCC)C1C(=O)CC2(CCC(CC)CC2)OC1=O (centres undefined),4.48
14,CCCCC(=O)OCC(=O)C1(O)CCC2C3CCC4=CC(=O)CCC4(C)C3C(O)CC21C (centres undefined),3.62
15,c1ccc(Cc2cc(-c3ccccc3)nnc2NCCN2CCOCC2)cc1,3.65
16,c1ccc(-c2ncc[nH]2)cc1,1.88
17,NNC(=O)c1ccncc1,-0.7
18,NC(=O)c1ccc(F)cc1,0.91
19,N#CCCOc1ccccc1,1.61
20,CCNC(=S)Nc1ccccc1,1.42
21,CN1CCCCC1,1.3
22,COc1ccc(C(C)c2ccc(OC)cc2)cc1,4.52
23,CCOc1cc(C(=O)NN)ccn1,0.48
24,COc1cc(S(C)=O)ccc1-c1nc2ccncc2[nH]1 (centres undefined),1.25
25,CN1C(=O)C(=O)c2ccccc21,0.58

row,SMILES,logP
1,CCCCOc1ccc(O)cc1,2.9
2,C[C@H](N)[C@H](O)c1cccc(O)c1,-0.27
3,CCCCCCOc1ccccc1NC(=O)OCCN1CCCCC1,5.29
4,COc1ccccc1OCC(=O)O,0.98
5,C=CCOc1ccccc1C(=C)n1ccnc1,2.79
6,CN(C)/N=N/c1ccccc1I,3.5
7,CC(=O)CF,-0.39
8,O=C(c1ccccc1)c1ccc(NS(=O)(=O)C(F)(F)F)cc1,4.28
9,O=C(O)c1cccc(C(=O)O)c1,1.66
10,O=[N+]([O-])c1ccc2cccnc2c1,1.82
11,COc1ccc2c(c1)N(C[C@H](C)CN(C)C)c1ccccc1S2,4.68
12,CC(C)(C)c1cccc(OCC(=O)O)c1,2.96
13,CC(C)=O,-0.24
14,CCc1cccc(O)c1,2.4
15,CC(=O)N[C@@H](Cc1ccccc1)C(=O)N[C@@H](CCC(N)=O)C(N)=O,-1.03
16,COC(=O)CC(=O)OC,-0.05
17,NC(=O)c1ccsc1,0.5
18,CC(=O)COc1ccccc1,1.04
19,COc1cccc2c1C(=O)c1c(O)c3c(c(O)c1C2=O)CC(O)(C(C)O)CC3OC1CC(N2CCOCC2)C(O)C(C)O1 (centres undefined),2.03
